Experimental data as given in patent publication US8496928B2, “Method for preventing and treating cardiovascular diseases with BRCA1” (priority 2008, dated 2013).

What was measured:
Type in all cases: cell-based, human
HUVECs [1] = test: HUVEC migration assay; settings: TNFα 20 ng/ml
Description: In FIG. 24A ad-null or ad-BRCA1 infected cells were trypsinized and seeded in the presence and absence of TNFα (20 ng/ml) on coated inserts and a colorimetric assay was performed after 24 hours. Migration was calculated as a percentage of ad-null controls. (n=4, **p<0.01). In FIG. 24B, ad-null or ad-BRCA1 infected HUVECs were seeded onto matrigel in the presence or absence of TNFα (20 ng/ml). Images were taken 5 hours after seeding (original magnification 20×). In FIG. 24C data was semi-quantitatively analyzed by counting tubular structures in four fields per group. Data is presented as mean±SD (n=3 in triplicate, *p<0.05, **p<0.01). HUVECs infected with ad-null or ad-BRCA1 were treated for 24 hours with TNFα (20 ng/ml). VCAM1 (FIG. 24D, FIG. 24E), ICAM1 (FIG. 24F, FIG. 24G) and E-selectin (FIG. 24H, FIG. 24I) protein and transcript expression were determined in cell extracts via western blots and real-time PCR, respectively. […] Data are expressed as mean±SD (n=3, **p<0.01).
The migratory function of HUVECs was determined with the CytoSelect™ 24-Well Cell Migration Fluorometric Assay (Cell Biolabs). […] Following 12 hours at 37° C., migratory cells were dissociated from the underside of the insert membrane, lysed and stained with the Lysis Buffer/CyQuant® GR dye solution before being fluorescently quantified. […]

HUVECs [2] = test: Matrigel tube formation assay; settings: TNFα 20 ng/ml
Description: (§1) In FIG. 24A ad-null or ad-BRCA1 infected cells were trypsinized and seeded in the presence and absence of TNFα (20 ng/ml) on coated inserts and a colorimetric assay was performed after 24 hours. Migration was calculated as a percentage of ad-null controls. (n=4, **p<0.01). In FIG. 24B, ad-null or ad-BRCA1 infected HUVECs were seeded onto matrigel in the presence or absence of TNFα (20 ng/ml). Images were taken 5 hours after seeding (original magnification 20×). In FIG. 24C data was semi-quantitatively analyzed by counting tubular structures in four fields per group. Data is presented as mean±SD (n=3 in triplicate, *p<0.05, **p<0.01). HUVECs infected with ad-null or ad-BRCA1 were treated for 24 hours with TNFα (20 ng/ml). VCAM1 (FIG. 24D, FIG. 24E), ICAM1 (FIG. 24F, FIG. 24G) and E-selectin (FIG. 24H, FIG. 24I) protein and transcript expression were determined in cell extracts via western blots and real-time PCR, respectively. GAPDH was used as a loading control for western blots and as a housekeeping gene for real-time PCR. Data are expressed as mean±SD (n=3, **p<0.01).
HUVEC-associated angiogenesis was measured with the In Vitro Angiogenesis Assay Kit from Chemicon. […] Tube formation was quantified by counting the number of tubes, branching points and network of tubes in randomly captured microscopic fields and by scoring the values for each type of structure. […]

[3] = tested on: VCAM1, ICAM1 and E-selectin; test: VCAM1, ICAM1 and E-selectin expression in HUVECs, real-time PCR and western blot; settings: ad-null treated HUVECs, TNFα 20 ng/ml 24 hours
Description: as §1
(§2) Western blot analysis was performed according to standard procedures. Proteins from whole cell lysates of HUVECs were resolved on SDS-polyacrylamide gels and transferred to nitrocellulose membranes (Bio-Rad). Membranes were probed with primary antibodies from Santa Cruz (BRCA1), Cell Signaling (p53, p21, Ser1177-phospho-eNOS, Akt, Ser473-phospho-Akt, cleaved caspase-3), Chemicon (GADD45a, GAPDH) and BD (eNOS). Immunoblots were incubated with the appropriate horseradish peroxidase-associated secondary antibodies before signals were visualized by chemiluminescence via the ECL detection system (GE Healthcare).
(§3) Total RNA extracted from HUVECs were reverse transcribed for quantitative assessment of VCAM1, ICAM1, E-selectin and VEGFa expressions by real-time PCR using the primer pairs listed in Table 4.
PCR reactions were performed on the ABI PRISM 7900HT system (Applied Biosystems) with GAPDH acting as the housekeeping control.

GADD45, p21 and p53 = test: Western blot of GADD45, p21 and p53 in HUVECs; settings: TNFα
Description: In FIG. 25A cell cycle progression was assessed after adenoviral (ad-null or ad-BRCA1) infection of HUVECs and 24 hours of TNFα (20 ng/ml) treatment followed by Propidium Iodide staining coupled with flow cytometry. […] GAPDH was used as a loading control.
as §2

eNOS, Akt, VEGFa = test: eNOS/phospho-eNOS, Akt/phospho-Akt and VEGFa expression in HUVECs; settings: TNFα treatment
Description: FIGS. 28A through 28E show eNOS/phospho-eNOS, Akt/phospho-Akt and VEGFa protein and RNA expression. Total protein and RNA were extracted from ad-null or ad-BRCA1 infected HUVECs treated thereafter with TNFα for 24 hours. As shown in FIGS. 28A and 28C, TNFα markedly elevated eNOS protein levels in BRCA1-overexpressing cells. […] Data are presented as mean±SEM of three independent experiments (*p<0.05, **p<0.01).
BRCA1 also promoted eNOS, phospho-eNOS, phospho-Akt and VEGFa expression. Since eNOS is essential for endothelial function, the potential regulation of endothelial nitric oxide synthase (eNOS) expression and phosphorylation by BRCA1 was examined via western blot analysis.
as §2, with “Immunoblots were incubated with the appropriate horseradish peroxidase-associated secondary antibodies before signals were visualized by chemiluminescence via the ECL detection system (GE Healthcare).” left out
as §3

TNFα was tested, and the “migratory capacity of HUVECs” value (HUVECs [1]) was “significantly hampered”, the “capacity to form vessel-like tubular structures” value (HUVECs [2]) was “reduced” and the E-selectin transcript upregulation [3] was 200 times. For the same substance, the ICAM1 transcript upregulation [3] was 400 times, the VCAM1 transcript upregulation [3] was 1500 times and the “protein levels of p53 and GADD45” value (GADD45, p21 and p53) was “no influence”. The p21 protein levels (GADD45, p21 and p53; in the presence and absence of BRCA1 overexpression) was “significantly elevate” and the eNOS protein levels (eNOS, Akt, VEGFa) was “significant reduction”.
